Tested on: streptozotocin (STZ)-induced diabetic rats
Assay: Mechanical thresholds in streptozotocin (STZ)-induced diabetic rats
Assay type: in vivo, rat
Method: Experiments were conducted to determine the effect of Compound 1 in streptozotocin (STZ)-induced diabetic rats. In the first experiment, after obtaining mechanical threshold baselines, STZ (50 mg/kg IV) was administered (Day −7). Two days later, blood glucose levels were measured and animals that were hyperglycemic (>250 mg/dL) continued in the study. On Day 0 the baseline for mechanical thresholds prior to dosing with test articles was established for the rats. Compound 1 (10, 30, and 100 mg/kg PO), gabapentin (100 mg/kg PO) or vehicle was then administered daily for 5 days. On Day 0 mechanical thresholds were obtained at 1, 3, and 6 h post-dose. On Day 1 mechanical thresholds were measured immediately prior to dosing and then 3 h post-dose. The same regimen was followed on Day 3.
In a subsequent study, the same STZ paradigm was followed. However, in addition to the 100 mg/kg Compound 1 group, two additional cohorts received the Compound 1 100 mg/kg dose split into two or three doses per day with 50 mg/kg BID and 33 mg/kg TID. In addition to the gabapentin (100 mg/kg PO) group, a separate cohort received duloxetine (30 mg/kg PO). Additionally, in this study mechanical threshold testing was implemented every day immediately prior to dosing and 2 h post-dose for 7 days.

[1] = subsequent study, 7 days, Compound 1 100 mg/kg QD, 50 mg/kg BID, 33 mg/kg TID, gabapentin 100 mg/kg PO, duloxetine 30 mg/kg PO

## NCC1(CC(=O)O)CCCCC1 [gabapentin, reference compound]
First experiment, Compound 1 10, 30, 100 mg/kg PO, gabapentin 100 mg/kg PO daily, Day 0 (gabapentin: 1 h post-dose on Day 0 and all time points thereafter)
  reversal of allodynia (mechanical threshold): significant reversal of allodynia
[1]
  reversal of allodynia (mechanical threshold): robustly reversed the allodynia throughout the study

## CNCC[C@H](Oc1cccc2ccccc12)c1cccs1 [duloxetine, reference compound]
[1]
  reversal of allodynia (mechanical threshold): required successive doses for appreciable activity

Source: patent publication US20200246317A1, “METHODS OF TREATING DIABETIC NEUROPATHY WITH A THIAZOLINE ANTI-HYPERALGESIC AGENT” (CERSCI THERAPEUTICS, INC., priority 2019, published 2020)
